Tests used:
[1] = target: full-length human RORγt (GAL4-DBD-RORγt fusion) in HEK293T cells (Homo sapiens (Human), UniProt P51449); assay: RORγt (full-length human) reporter assay, conditions A or B; type: cell-based; conditions: for IC50: HEK293T cells, read-out: RORγt (FL) Reporter Assay A or B, IC50; for inhibition at 3 µM: 3 μM compound concentration (footnote *)
Outline: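 HEK293T cells expressing GAL4-DBD-RORγt fusion (96- or 384-well formats, DMEM/10% FBS) exposed to compound overnight (16–20 h). Firefly luciferase normalized to DMSO and saturating reference compound, then to Renilla; IC50 from dose curve, % inhibition versus DMSO.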

[2] = tested on: IL-17 production by human CD4+ T cells under Th17 differentiation; assay: Human Th17 assay (IL-17 production by CD4 T cells); type: cell-based; conditions: 72 h, IL-17 after 3 days
Excerpt: The human Th17 assay tests the effect of RORγt modulatory compounds on IL-17 production by CD4 T cells under conditions which favor Th17 differentiation. Total CD4^+ T cells were isolated from the peripheral blood mononuclear cells (PBMC) of healthy donors using a CD4^+ T cell isolation kit II, following the manufacturer's instructions (Miltenyi Biotec). Cells were resuspended in a medium of RPMI-1640 supplemented with 10% fetal bovine serum, penicillin, streptomycin, glutamate, and β-mercaptoethanol and were added to 96-well plates at 1.5×10^5 per 100 μL per well. 50 μL of compound at titrated concentrations in DMSO were added into each well at final DMSO concentration at 0.2%. Cells were incubated for 1 hour, then 50 μL of Th17 cell differentiation medium was added to each well. The final concentrations of antibodies and cytokines (R&D Systems) in differentiation medium were: 3×10^6/mL anti-CD3/CD28 beads (prepared using human T cell activation/expansion kit, Miltenyi Biotec), 10 μg/mL anti-IL4, 10 μg/mL anti-IFNγ, 10 ng/mL IL1β, 10 ng/mL IL23, 50 ng/mL IL6, 3 ng/mL TGFβ and 20 U/mL IL2. Cells were cultured at 37° C. and 5% CO2 for 3 days. Supernatants were collected and the accumulated IL-17 in culture was measured by using MULTI-SPOT® Cytokine Plate following manufacture's instruction (Meso Scale Discovery). The plate was read using Sector Imager 6000, and IL-17 concentration was extrapolated from the standard curve. The IC50s were determined by GraphPad.

[3] = target: human RORγt ligand binding domain (RORγt LBD) (Homo sapiens (Human), UniProt P51449); assay: RORγt ThermoFluor assay
[4] = tested on: Th17-dependent learned helplessness; conditions: mice; cited from earlier work
[5] = tested on: obese diabetic mice; conditions: cited from earlier work
[6] = HEK-293T, read-out: RORγt (FL) Reporter Assay A or B, % inhibition

human RORγt ligand binding domain (RORγt LBD), sequence (P51449 other isoform, or with tags, fused parts or gaps): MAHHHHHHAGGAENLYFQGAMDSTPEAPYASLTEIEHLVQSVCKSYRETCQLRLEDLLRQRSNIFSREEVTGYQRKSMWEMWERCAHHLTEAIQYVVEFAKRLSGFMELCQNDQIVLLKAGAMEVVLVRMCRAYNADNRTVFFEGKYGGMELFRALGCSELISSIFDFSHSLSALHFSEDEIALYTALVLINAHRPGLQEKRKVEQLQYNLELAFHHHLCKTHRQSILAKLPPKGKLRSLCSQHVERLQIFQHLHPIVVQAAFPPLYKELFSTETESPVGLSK
full-length human RORγt (GAL4-DBD-RORγt fusion) in HEK293T cells, sequence (P51449 other isoform, or with tags, fused parts or gaps): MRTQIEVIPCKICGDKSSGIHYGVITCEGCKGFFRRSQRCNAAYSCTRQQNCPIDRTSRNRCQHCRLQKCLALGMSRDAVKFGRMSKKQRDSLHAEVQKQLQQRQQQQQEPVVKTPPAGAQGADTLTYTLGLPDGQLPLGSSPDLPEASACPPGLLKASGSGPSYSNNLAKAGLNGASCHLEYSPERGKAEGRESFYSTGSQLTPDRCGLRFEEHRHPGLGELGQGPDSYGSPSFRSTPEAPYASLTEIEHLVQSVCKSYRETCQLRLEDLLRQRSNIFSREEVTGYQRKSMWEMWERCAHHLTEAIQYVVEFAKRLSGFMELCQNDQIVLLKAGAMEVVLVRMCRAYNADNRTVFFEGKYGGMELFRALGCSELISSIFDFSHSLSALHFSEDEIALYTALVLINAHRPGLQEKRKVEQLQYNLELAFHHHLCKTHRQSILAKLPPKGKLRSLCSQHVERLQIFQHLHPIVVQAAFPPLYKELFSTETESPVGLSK

Row | Structure (SMILES) | IC50 [1] [nM] | inhibition at 3 µM [1, 6] [%] | IC50 [2] [nM] | Kd [3] [nM] | inhibition at 2 µM ([1]; HEK-293T, 2 μM compound concentration, read-out: RORγt (FL) Reporter Assay A or B, % inhibition) [%] | Th17-dependent learned helplessness [4] | body weight [5] | fat mass [5] | food intake [5] | insulin sensitivity [5]
1 | CCc1cc(C[C@@H](C)C(F)(F)F)ncc1-c1c(Cl)c(C(=O)NC[C@H]2CC[C@H](S(C)(=O)=O)CC2)nn1CC (relative stereo) [Example 57, 4-Chloro-1-ethyl-5-(4-ethyl-6-((R*)-3,3,3-trifluoro-2-methylpropyl)pyridin-3-yl)-N-((1r,4R)-4-(methylsulfonyl)cyclohexyl)methyl)-1H-pyrazole-3-carboxamide] | 340 | 43 | 450 | 20 |  |  |  |  |  | 
2 | CCc1cc(C[C@@H](C)C(F)(F)F)ncc1-c1c(C)c(C(=O)NC[C@H]2CC[C@H](S(C)(=O)=O)CC2)nn1CC (relative stereo) [Example 58, 1-Ethyl-5-(4-ethyl-6-((R*)-3,3,3-trifluoro-2-methylpropyl)pyridin-3-yl)-4-methyl-N-((1r,4R)-4-(methylsulfonyl)cyclohexyl)methyl)-1H-pyrazole-3-carboxamide] | > 2900 | 23 | 730 | 43 |  |  |  |  |  | 
3 | CCc1cc(C[C@@H](C)C(F)(F)F)ncc1-c1c(Cl)c(C(=O)NC[C@]2(O)CC[C@@H](S(C)(=O)=O)CC2)nn1CC (single isomer, unassigned) [Example 56, 4-Chloro-1-ethyl-5-(4-ethyl-6-((R*)-3,3,3-trifluoro-2-methylpropyl)pyridin-3-yl)-N-(((1s,4S)-1-hydroxy-4-(methylsulfonyl)cyclohexyl)methyl)-1H-pyrazole-3-carboxamide] | 2300 | 30 | 370 | 120 |  |  |  |  |  | 
4 | CCn1nc(C(=O)NC[C@H]2CC[C@H](S(C)(=O)=O)CC2)c(Cl)c1-c1cnc(C[C@H](C)C(F)(F)F)cc1OC (single isomer, unassigned) [Example 62, 4-Chloro-1-ethyl-5-(4-methoxy-6-((S*)-3,3,3-trifluoro-2-methylpropyl)pyridin-3-yl)-N-((1r,4r)-4-(methylsulfonyl)cyclohexyl)methyl)-1H-pyrazole-3-carboxamide] | 180 |  | 81 | 17 | 89 |  |  |  |  | 
5 | CCn1nc(C(=O)NC[C@]2(O)CC[C@@H](S(C)(=O)=O)CC2)c(C)c1-c1cnc(CC(C)(C)C(F)(F)F)cc1OC(F)F [Example 8, 5-(4-(Difluoromethoxy)-6-(3,3,3-trifluoro-2,2-dimethylpropyl)pyridin-3-yl)-1-ethyl-N-(((1s,4s)-1-hydroxy-4-(methylsulfonyl)cyclohexyl)methyl)-4-methyl-1H-pyrazole-3-carboxamide] | 56 | 100 | 51 | 11 |  |  |  |  |  | 
6 | CCn1nc(C(=O)NC[C@H]2CC[C@H](S(C)(=O)=O)CC2)c(Cl)c1-c1cnc(CC(C)(C)C(F)(F)F)cc1OC(F)F [Example 9, 4-Chloro-5-(4-(difluoromethoxy)-6-(3,3,3-trifluoro-2,2-dimethylpropyl)pyridin-3-yl)-1-ethyl-N-(((1r,4r)-4-(methylsulfonyl)cyclohexyl)methyl)-1H-pyrazole-3-carboxamide] | 8.1 | 117 | 11 | 0.75 |  |  |  |  |  | 
7 | CCn1nc(C(=O)NC[C@]2(O)CC[C@@H](S(C)(=O)=O)CC2)c(Cl)c1-c1cnc(CC(C)(C)C(F)(F)F)cc1OC(F)F [Example 10, 4-Chloro-5-(4-(difluoromethoxy)-6-(3,3,3-trifluoro-2,2-dimethylpropyl)pyridin-3-yl)-1-ethyl-N-(((1s,4s)-1-hydroxy-4-(methylsulfonyl)cyclohexyl)methyl)-1H-pyrazole-3-carboxamide] | 14 | 98 | 48 | 3.2 |  |  |  |  |  | 
8 | CCn1nc(C(=O)NC[C@H]2CC[C@H](S(C)(=O)=O)CC2)c(C)c1-c1cnc(CC(C)(C)C(F)(F)F)cc1OC(F)F [Example 13, 5-(4-(Difluoromethoxy)-6-(3,3,3-trifluoro-2,2-dimethylpropyl)pyridin-3-yl)-1-ethyl-4-methyl-N-(((1r,4r)-4-(methylsulfonyl)cyclohexyl)methyl)-1H-pyrazole-3-carboxamide] | 11 | 91 | 38 | 2.2 |  |  |  |  |  | 
9 | CCn1nc(C(=O)NC[C@H]2CC[C@H](S(C)(=O)=O)CC2)c(C)c1-c1cnc(CC(C)(C)C(F)(F)F)cc1C(F)F [Example 29, 5-(4-(Difluoromethyl)-6-(3,3,3-trifluoro-2,2-dimethylpropyl)pyridin-3-yl)-1-ethyl-4-methyl-N-(((1r,4r)-4-(methylsulfonyl)cyclohexyl)methyl)-1H-pyrazole-3-carboxamide] | 360 | 39 | 210 | 24 |  |  |  |  |  | 
10 | CCn1nc(C(=O)NC[C@H]2CC[C@H](S(C)(=O)=O)CC2)c(Cl)c1-c1cnc(CC(C)(C)C(F)F)cc1OC(F)F [Example 37, 4-Chloro-5-(6-(3,3-difluoro-2,2-dimethylpropyl)-4-(difluoromethoxy)pyridin-3-yl)-1-ethyl-N-(((1r,4r)-4-(methylsulfonyl)cyclohexyl)methyl)-1H-pyrazole-3-carboxamide] | 21 | 98 | 34 | 3.5 |  |  |  |  |  | 
11 | CC(=O)Nc1nc(C)c(S(=O)(=O)Nc2ccc(C(O)(C(F)(F)F)C(F)(F)F)cc2)s1 [SR1001] |  |  |  |  |  | reduced Th17-dependent learned helplessness |  |  |  | 
12 | CC(=O)N1CCN(Cc2ccc(-c3ccc(C(O)(C(F)(F)F)C(F)(F)F)cc3)cc2)CC1 [SR1555] |  |  |  |  |  |  | reduced body weight | significant reduction in fat mass | modest reduction in food intake | improved insulin sensitivity
